Drawing on DBAASP, this text covers MIC for 12 compounds.

In brackets after ≈: the same amount, converted by molar mass. Several values for one entry are separate records, joined by “and”; a condition that tells them apart may be missing. Equal values may be shown once.

Among the test systems are Escherichia coli; Escherichia coli ML-35p; Klebsiella pneumoniae; Pseudomonas aeruginosa; Salmonella typhimurium; Aspergillus fumigatus; Escherichia coli JW0013.
Assay in all cases: ≥ marks a high value that may be exact or a test limit, other limits are often not marked, values filed in µg/mL are converted to µM
Assay [1] deals with Pseudomonas aeruginosa Ps4.
For assay [2], the system named is Staphylococcus aureus ATCC 25923.
Assay [3] relates to Staphylococcus aureus ATCC 43300.
In assay [4] the test system is Pseudomonas aeruginosa PAO1.
Assay [5] relates to Escherichia coli ATCC 25922.
Assay [6] has as its system Pseudomonas aeruginosa CMCCB 10104.
The test system of assay [7] is Pseudomonas aeruginosa ATCC 27853.
Assay [8] has as its system Escherichia coli DH5alpha.
The test system of assay [9] is Micrococcus luteus ATCC 9341.

As for `CC(C)[C@H](NC(=O)[C@H](CCCCN)NC(=O)[C@H](CCCN=C(N)N)NC(=O)[C@H](Cc1ccccc1)NC(=O)[C@H](CC(N)=O)NC(=O)[C@H](CCCN=C(N)N)NC(=O)[C@H](CCC(N)=O)NC(=O)[C@H](Cc1c[nH]c2ccccc12)NC(=O)[C@@H](N)Cc1ccccc1)C(=O)N[C@@H](CCCN=C(N)N)C(N)=O` [FWQRNFRKVR], in [1], the MIC – broadly, the lowest concentration that inhibits growth of the organism – is at least 174 µM.
The same measure, in the same setting: next, `CC[C@H](C)[C@H](NC(=O)[C@H](CC(N)=O)NC(=O)[C@H](CCCN=C(N)N)NC(=O)[C@H](CCC(N)=O)NC(=O)[C@H](Cc1c[nH]c2ccccc12)NC(=O)[C@@H](N)Cc1ccccc1)C(=O)N[C@@H](CCCCN)C(=O)N[C@H](C(=O)N[C@@H](CCCN=C(N)N)C(N)=O)C(C)C` [FWQRNIKVR]: at least 201 µM.
Same read-out and setting: next, `CC[C@H](C)[C@H](NC(=O)[C@H](CC(N)=O)NC(=O)[C@H](CCCN=C(N)N)NC(=O)[C@H](CCC(N)=O)NC(=O)[C@H](Cc1c[nH]c2ccccc12)NC(=O)[C@@H](N)Cc1ccccc1)C(=O)N[C@@H](CCCN=C(N)N)C(=O)N[C@@H](CCCCN)C(=O)N[C@@H](Cc1ccccc1)C(=O)N[C@@H](CCCN=C(N)N)C(N)=O` [FWQRNIRKFR]: at least 172 µM; `CC[C@H](C)[C@H](NC(=O)[C@H](CC(N)=O)NC(=O)[C@H](CCCN=C(N)N)NC(=O)[C@H](CCC(N)=O)NC(=O)[C@H](Cc1c[nH]c2ccccc12)NC(=O)[C@@H](N)Cc1ccccc1)C(=O)N[C@@H](CCCN=C(N)N)C(=O)N[C@@H](CCCCN)C(=O)N[C@H](C(=O)N[C@@H](CCCCN)C(=O)N[C@@H](CCCCN)C(=O)N[C@@H](CCCCN)C(=O)N[C@@H](CCCCN)C(N)=O)C(C)C` [FWQRNIRKVKKKK]: at least 142 µM.
Consider `CC[C@H](C)[C@H](NC(=O)[C@@H](NC(=O)[C@@H](NC(=O)[C@H](CCCN=C(N)N)NC(=O)[C@H](Cc1cnc[nH]1)NC(=O)[C@H](Cc1ccccc1)NC(=O)[C@H](Cc1cnc[nH]1)NC(=O)CNC(=O)[C@H](CCCCN)NC(=O)[C@H](CO)NC(=O)[C@H](CCCCN)NC(=O)[C@H](CC(=O)O)NC(=O)[C@H](Cc1cnc[nH]1)NC(=O)[C@H](CC(=O)O)NC(=O)[C@H](CCCN=C(N)N)NC(=O)CNC(=O)[C@H](CCC(=O)O)NC(=O)[C@H](CCC(N)=O)NC(=O)[C@H](CCCCN)NC(=O)[C@H](CC(N)=O)NC(=O)[C@@H](N)Cc1cnc[nH]1)C(C)C)C(C)C)C(=O)N[C@@H](Cc1cnc[nH]1)C(=O)N[C@@H](Cc1cnc[nH]1)C(=O)N[C@@H](CCCCN)C(=O)NCC(=O)NCC(=O)N[C@@H](CCCCN)C(=O)N[C@@H](C)C(=O)N[C@@H](Cc1cnc[nH]1)C(=O)O` [HNKQEGRDHDKSKGHFHRVVIHHKGGKAH], for which the MIC was above 30 µM in assay [2]; 1.05 µM and 1.17 µM in the assay with Escherichia coli; above 30 µM in assay [3]; 2.2 µM (≈ 7.44 µg/mL) in the assay on Escherichia coli ML-35p; 3.81 µM (≈ 12.9 µg/mL) in assay [4]; 1.67 µM (≈ 5.64 µg/mL) in [5]. In addition, the MIC in [6] is 2.17 µM (≈ 7.34 µg/mL); in assay [7], 1.57 µM (≈ 5.29 µg/mL).
For `CC[C@H](C)[C@H](N)C(=O)N[C@@H](CC(C)C)C(=O)N1CCC[C@H]1C(=O)N[C@@H](Cc1c[nH]c2ccccc12)C(=O)N[C@@H](CCCCN)C(=O)N[C@@H](Cc1c[nH]c2ccccc12)C(=O)N[C@@H](C)C(=O)N[C@@H](Cc1c[nH]c2ccccc12)C(=O)N[C@@H](Cc1c[nH]c2ccccc12)C(=O)N1CCC[C@H]1C(=O)N[C@@H](Cc1c[nH]c2ccccc12)C(=O)N[C@@H](CCCN=C(N)N)C(=O)N[C@@H](CCCN=C(N)N)C(N)=O` [ILPWKWAWWPWRR], the MIC amounted to 15 µM (≈ 28.2 µg/mL) against Klebsiella pneumoniae; 10 µM (≈ 18.8 µg/mL) in assay [8]; 50 µM (≈ 94 µg/mL) in the assay with Pseudomonas aeruginosa; 0.4 µM (≈ 0.752 µg/mL) in assay [9]; 25 µM (≈ 47 µg/mL) with Salmonella typhimurium.
For the compound `CC[C@H](C)[C@H](N)C(=O)N[C@@H](CC(C)C)C(=O)N1CCC[C@H]1C(=O)N[C@@H](Cc1c[nH]c2ccccc12)C(=O)N[C@@H](CCCCN)C(=O)N[C@@H](Cc1c[nH]c2ccccc12)C(=O)N1CCC[C@H]1C(=O)N[C@@H](Cc1c[nH]c2ccccc12)C(=O)N[C@@H](Cc1c[nH]c2ccccc12)C(=O)N1CCC[C@H]1C(=O)N[C@@H](Cc1c[nH]c2ccccc12)C(=O)N[C@@H](CCCN=C(N)N)C(=O)N[C@@H](C)C(N)=O` [ILPWKWPWWPWRA], the MIC in assay [9] was 0.8 µM (≈ 1.46 µg/mL).
Turning to `CC(C)[C@H](NC(=O)[C@@H](N)CCCCN)C(=O)N[C@@H](C)C(=O)N[C@@H](CCCCN)C(=O)N[C@@H](CCC(N)=O)C(=O)N[C@@H](CCC(=O)O)C(=O)N[C@@H](CCCCN)C(=O)N[C@@H](CCCCN)C(=O)N[C@@H](CCCCN)C(=O)N[C@@H](CCCCN)C(=O)N[C@@H](CCCCN)C(=O)N[C@H](C(=O)NCC(=O)N[C@@H](CCCN=C(N)N)C(=O)N[C@@H](C)C(=O)N[C@@H](CCCCN)C(=O)N[C@@H](CCCN=C(N)N)C(=O)N[C@@H](CCCN=C(N)N)C(=O)O)[C@@H](C)O` [KVAKQEKKKKKTGRAKRR], in the assay on Aspergillus fumigatus, the MIC was determined as 18 µM (≈ 39 µg/mL).
In the case of `CC(C)C[C@H](N)C(=O)N1CCC[C@H]1C(=O)N[C@@H](Cc1c[nH]c2ccccc12)C(=O)N[C@@H](CCCCN)C(=O)N[C@@H](Cc1c[nH]c2ccccc12)C(=O)N1CCC[C@H]1C(=O)N[C@@H](Cc1c[nH]c2ccccc12)C(=O)N[C@@H](Cc1c[nH]c2ccccc12)C(=O)N1CCC[C@H]1C(=O)N[C@@H](Cc1c[nH]c2ccccc12)C(=O)N[C@@H](CCCN=C(N)N)C(=O)N[C@@H](CCCN=C(N)N)C(N)=O` [LPWKWPWWPWRR], in [9], the MIC came to 0.2 µM (≈ 0.359 µg/mL).
With `CC[C@H](C)[C@H](NC(=O)[C@H](CCCN=C(N)N)NC(=O)[C@H](CCCN=C(N)N)NC(=O)[C@@H]1CCCN1C(=O)[C@@H]1CCCN1C(=O)[C@H](CCCN=C(N)N)NC(=O)[C@@H]1CCCN1C(=O)[C@H](CCCN=C(N)N)NC(=O)[C@@H]1CCCN1C(=O)[C@H](CC(C)C)NC(=O)[C@H](Cc1cnc[nH]1)NC(=O)[C@@H]1CCCN1C(=O)[C@@H]1CCCN1C(=O)[C@H](CCCCN)NC(=O)[C@H](CC(=O)O)NC(=O)[C@@H](N)C(C)C)C(=O)N[C@@H](Cc1ccc(O)cc1)C(=O)N[C@@H](CC(N)=O)C(=O)N[C@@H](CCCN=C(N)N)C(N)=O` [VDKPPHLPRPRPPRRIYNR], the MIC with Escherichia coli JW0013 stood at 2.03 µM (≈ 4.8 µg/mL).
In the assay with Escherichia coli JW0013, `CC[C@H](C)[C@H](NC(=O)[C@H](CCCN=C(N)N)NC(=O)[C@H](CCCN=C(N)N)NC(=O)[C@@H]1CCCN1C(=O)[C@@H]1CCCN1C(=O)[C@H](CCCN=C(N)N)NC(=O)[C@@H](NC(=O)[C@H](CCCN=C(N)N)NC(=O)[C@@H]1CCCN1C(=O)[C@H](CC(C)C)NC(=O)[C@H](Cc1ccc(O)cc1)NC(=O)[C@@H]1CCCN1C(=O)[C@@H]1CCCN1C(=O)[C@H](CCCCN)NC(=O)[C@H](CC(=O)O)NC(=O)[C@@H](N)C(C)C)[C@@H](C)CC)C(=O)N[C@@H](Cc1ccc(O)cc1)C(=O)N[C@@H](CC(N)=O)C(=O)N[C@@H](CCCN=C(N)N)C(N)=O` [VDKPPYLPRIRPPRRIYNR] returned an MIC of 1.37 µM (≈ 3.3 µg/mL).
Same read-out and setting: for `CC[C@H](C)[C@H](NC(=O)[C@H](CCCN=C(N)N)NC(=O)[C@H](CCCN=C(N)N)NC(=O)[C@@H]1CCCN1C(=O)[C@@H]1CCCN1C(=O)[C@H](CCCN=C(N)N)NC(=O)[C@@H]1CCCN1C(=O)[C@H](CCCN=C(N)N)NC(=O)[C@@H]1CCCN1C(=O)[C@H](CC(C)C)NC(=O)[C@H](Cc1ccc(O)cc1)NC(=O)[C@@H]1CCCN1C(=O)[C@@H]1CCCN1C(=O)[C@H](CCCCN)NC(=O)[C@H](CC(=O)O)NC(=O)[C@@H](N)Cc1c[nH]c2ccccc12)C(=O)N[C@@H](Cc1ccc(O)cc1)C(=O)N[C@@H](CC(N)=O)C(=O)N[C@@H](CCCN=C(N)N)C(N)=O` [WDKPPYLPRPRPPRRIYNR] the value was 1.94 µM (≈ 4.8 µg/mL).
